Source: publication PMC13397332 (Biochimica et biophysica acta. Proteins and proteomics, 2025)

Molecular target: T1, OrnR (STM OrnR, ornithine racemase) (Salmonella enterica, UniProt Q8ZNC6)
T1 sequence (Q8ZNC6 1-367): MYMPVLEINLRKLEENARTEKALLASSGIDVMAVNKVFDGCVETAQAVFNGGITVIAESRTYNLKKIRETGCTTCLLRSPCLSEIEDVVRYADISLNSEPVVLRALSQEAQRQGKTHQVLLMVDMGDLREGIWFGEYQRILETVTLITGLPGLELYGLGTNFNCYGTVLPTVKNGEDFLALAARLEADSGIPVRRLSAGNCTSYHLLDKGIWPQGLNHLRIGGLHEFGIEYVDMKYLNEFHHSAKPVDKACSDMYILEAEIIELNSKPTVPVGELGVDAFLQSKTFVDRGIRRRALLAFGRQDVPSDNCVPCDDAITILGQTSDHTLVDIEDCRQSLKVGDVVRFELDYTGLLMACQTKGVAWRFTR
Settings: read-out: S0.5; D to L direction, pH 9.2, 37 °C, 0.8 mM PLP; sigmoid, Hill fit

`NCCC[C@@H](N)C(=O)O` [D-ornithine] was tested, and the Km was 12.8 ± 2.7 mM.
